Among the data in the NIST ThermoML archive (doi:10.1016/j.tca.2012.07.014) are Normal melting temperature values, retold here.

For the data set the following is noted: Crystal; visual observation.

± gives the expanded uncertainty stated by the source.

With `CO[C@@]12[C@H](COC(N)=O)C3=C(C(=O)C(C)=C(N)C3=O)N1C[C@@H]1N[C@@H]12` [ametycine], the Normal melting temperature was 360.00 ± 1 °C.
